Data taken from ChEMBL document CHEMBL1201862, “PubChem BioAssay data set” (2004).
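Growth conditions: 96-well plates. Treatment: test compound, 48 hours, 5 concentrations. Analysis: linear interpolation between bracketing concentrations; unreached endpoints set to highest concentration. GI50: concentration for 50% inhibition of growth.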 Calls of active or inactive are those of the source. Cut-off read from the data, not from the text of the source: active = GI50 up to about 1.1 µM and inactive = higher. *1 amine or outer side, *2 acyl side, *3 side chain or, on linkers, in order; H or OH if unused. Where a SMILES comes first, the peptide text is derived from it. Bridges are numbered along the chain shown (N, C = ends). [ ]: non-standard residue; d: D form. The star is where a group is joined. X36 = O=C(C(CCCCNO[*:3])N[*:1])[*:2]; Fmoc = O=C(OCC1c2ccccc2-c2ccccc21)*

Experiments:
Experiment in all cases: DTP human tumour cell line panel, 48 h
786-0 = test system: 786-0
BT-549 = test system: BT-549
CAKI-1 = test system: CAKI-1
DU-145 = test system: DU-145
HCC 2998 = test system: HCC 2998
Hs-578T = test system: Hs-578T
K562 = test system: K562
KM12 = test system: KM12
LOX IMVI = test system: LOX IMVI
NCI/ADR-RES = test system: NCI/ADR-RES
RPMI-8226 = test system: RPMI-8226
RXF 393 = test system: RXF 393
SF-539 = test system: SF-539
SK-MEL-2 = test system: SK-MEL-2
SNB-19 = test system: SNB-19
SNB-75 = test system: SNB-75
UACC-62 = test system: UACC-62
UO-31 = test system: UO-31
SK-OV-3 = test system: SK-OV-3

Measured: GI50

Cc1ccc(OCCn2cc(Nc3ccccc3)c(=O)[nH]c2=O)cc1
inactive: 786-0 > 100 µM | BT-549 > 100 µM | CAKI-1 > 100 µM | DU-145 > 100 µM | HCC 2998 > 100 µM | Hs-578T 22.1 µM | K562 > 100 µM | KM12 > 100 µM | LOX IMVI > 100 µM | NCI/ADR-RES > 100 µM | RPMI-8226 > 100 µM | RXF 393 > 100 µM | SF-539 > 100 µM | SK-MEL-2 > 100 µM | SNB-19 > 100 µM | SNB-75 34.3 µM | UACC-62 > 100 µM | UO-31 > 100 µM

CCOC(=O)c1cn(CC)c2cc3c(cc2c1=O)CCS3(=O)=O
inactive: 786-0 > 100 µM | BT-549 > 100 µM | DU-145 > 100 µM | HCC 2998 > 100 µM | Hs-578T > 100 µM | K562 > 100 µM | KM12 > 100 µM | NCI/ADR-RES > 100 µM | RXF 393 > 100 µM | SF-539 > 100 µM | SK-MEL-2 19.1 µM | SK-OV-3 > 100 µM | SNB-19 > 100 µM | UACC-62 > 100 µM | UO-31 > 100 µM

CC(=O)Oc1c(-c2ccccc2)sc2ccccc12
inactive: 786-0 15.6 µM | BT-549 21.4 µM | CAKI-1 1.33 µM | DU-145 14.1 µM | HCC 2998 17.1 µM | Hs-578T 19.6 µM | K562 13.9 µM | KM12 18.4 µM | LOX IMVI 13.5 µM | NCI/ADR-RES 18.2 µM | RPMI-8226 1.61 µM | RXF 393 13.6 µM | SF-539 20.6 µM | SK-MEL-2 13.3 µM | SNB-19 34.4 µM | SNB-75 15.8 µM | UACC-62 15.7 µM | UO-31 16.8 µM

NC(=O)CNC(=O)C1CCCN1C(=O)C1CCCCNOC(=O)CCC(NC(=O)OCC2c3ccccc3-c3ccccc32)C(=O)NC(Cc2c[nH]c3ccccc23)C(=O)N1 (stereo not given) (Fmoc-EW[X36]PG-NH2; ester 1-3; configuration not given here)
inactive: 786-0 > 100 µM | BT-549 > 100 µM | DU-145 > 100 µM | HCC 2998 > 100 µM | Hs-578T > 100 µM | K562 > 100 µM | KM12 > 100 µM | LOX IMVI > 100 µM | NCI/ADR-RES > 100 µM | RPMI-8226 > 100 µM | RXF 393 > 100 µM | SF-539 > 100 µM | SK-MEL-2 > 100 µM | SK-OV-3 63.4 µM | SNB-19 > 100 µM | SNB-75 > 100 µM | UACC-62 > 100 µM | UO-31 24.9 µM

CCN1C(=O)C(=C/C=C/c2ccc([N+](=O)[O-])cc2)C(=O)N(CC)C1=S
inactive: 786-0 18.6 µM | BT-549 16.5 µM | CAKI-1 26.4 µM | DU-145 17.6 µM | HCC 2998 43.4 µM | Hs-578T 15.3 µM | K562 20.1 µM | KM12 22.3 µM | LOX IMVI 18.3 µM | NCI/ADR-RES 19.5 µM | RPMI-8226 30.8 µM | RXF 393 17 µM | SF-539 21.2 µM | SK-MEL-2 23.8 µM | SK-OV-3 > 100 µM | SNB-19 37.9 µM | UACC-62 18.9 µM | UO-31 18.8 µM

CC(C)(CO)NC(=O)Nc1c(C(F)(F)F)cc(-c2ccccc2)[nH]c1=O
inactive: 786-0 > 100 µM | BT-549 > 100 µM | CAKI-1 > 100 µM | DU-145 > 100 µM | HCC 2998 > 100 µM | Hs-578T > 100 µM | K562 > 100 µM | KM12 > 100 µM | LOX IMVI > 100 µM | NCI/ADR-RES > 100 µM | RXF 393 > 100 µM | SK-MEL-2 > 100 µM | SK-OV-3 > 100 µM | SNB-19 > 100 µM | UACC-62 > 100 µM | UO-31 > 100 µM

C[C@H](NC1=C(Cl)C(=O)c2c(O)ccc(O)c2C1=O)C(=O)Nc1ccc([N+](=O)[O-])cc1
inactive: 786-0 1.6 µM | BT-549 4.02 µM | CAKI-1 4.13 µM | DU-145 1.82 µM | HCC 2998 3.33 µM | Hs-578T 4.57 µM | K562 10 µM | KM12 1.82 µM | NCI/ADR-RES 1.81 µM | RPMI-8226 1.84 µM | RXF 393 1.56 µM | SF-539 2.21 µM | SK-MEL-2 3.52 µM | SK-OV-3 6.89 µM | SNB-19 3.06 µM | SNB-75 4.04 µM | UACC-62 2.4 µM

CCC1=NC(N/N=C/c2ccco2)=N/C1=C\c1ccccc1O
inactive: 786-0 39.7 µM | BT-549 29.4 µM | CAKI-1 > 100 µM | DU-145 55.6 µM | HCC 2998 20.8 µM | Hs-578T 30.6 µM | K562 56.5 µM | KM12 31.5 µM | LOX IMVI 35 µM | NCI/ADR-RES 24.5 µM | RPMI-8226 31.9 µM | RXF 393 82.4 µM | SK-MEL-2 25.9 µM | SK-OV-3 47 µM | SNB-19 47.9 µM | UACC-62 22.3 µM | UO-31 11.6 µM

COc1ccc(OC)c2c1-c1nnnn1CCC2(C)C
inactive: 786-0 > 100 µM | BT-549 > 100 µM | DU-145 > 100 µM | HCC 2998 > 100 µM | Hs-578T > 100 µM | K562 > 100 µM | KM12 > 100 µM | LOX IMVI > 100 µM | NCI/ADR-RES > 100 µM | RPMI-8226 > 100 µM | RXF 393 > 100 µM | SF-539 > 100 µM | SK-MEL-2 > 100 µM | SK-OV-3 > 100 µM | SNB-19 > 100 µM | SNB-75 > 100 µM | UACC-62 > 100 µM | UO-31 > 100 µM

Cc1cc2c(nn1)-c1ccccc1C2=O
inactive: 786-0 > 10 µM | BT-549 > 10 µM | CAKI-1 > 10 µM | DU-145 > 10 µM | HCC 2998 > 10 µM | Hs-578T > 10 µM | K562 > 10 µM | KM12 > 10 µM | LOX IMVI > 10 µM | NCI/ADR-RES > 10 µM | RPMI-8226 > 10 µM | RXF 393 > 10 µM | SF-539 > 10 µM | SK-MEL-2 > 10 µM | SK-OV-3 > 10 µM | SNB-19 > 10 µM | UACC-62 > 10 µM | UO-31 > 10 µM

Cc1cccc(N2C(=O)C3c4[nH]c5ccccc5c4C4CCC(C(C)(C)C)CC4C3C2=O)c1C (stereo not given)
inactive: 786-0 38.7 µM | BT-549 > 100 µM | CAKI-1 > 100 µM | DU-145 > 100 µM | HCC 2998 > 100 µM | Hs-578T 25.8 µM | K562 > 100 µM | LOX IMVI > 100 µM | NCI/ADR-RES > 100 µM | RPMI-8226 > 100 µM | RXF 393 > 100 µM | SF-539 75.9 µM | SK-MEL-2 > 100 µM | SK-OV-3 > 100 µM | SNB-19 > 100 µM | UACC-62 > 100 µM | UO-31 > 100 µM
